Laboratory results published in PubChem BioAssay AID248 (DTP/NCI, 2004).
Several values for one entry are separate records, joined by “and”; a condition that tells them apart may be missing. Equal values may be shown once. Inconclusive results and toxic doses are left out. Cut-off read from the data, not from the text of the source: active = T/C of 150% or more; inactive = T/C below 125%.

Test system: L1210 leukemia ip in BDF1 mice, survival T/C
Assay: NCI In Vivo Anticancer Drug Screen. Data for tumor model L1210 Leukemia (intraperitoneal) in B6D2F1 (BDF1) mice
Details: endpoint: mean survival time, higher = longer survival
Procedure, shortened: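 Survival endpoint. Drug-treated group vs vehicle group, expressed as T divided by C. Tumor passaged by transplantation.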

[1] = dose: 100.0 mg/kg/injection, schedule: Q01DX001 (ip), vehicle: Klucel (hydroxypropylcellulose) (HPC)
[2] = dose: 200.0 mg/kg/injection, schedule: Q01DX001 (ip), vehicle: Klucel (hydroxypropylcellulose) (HPC)
[3] = dose: 200.0 mg/kg/injection, schedule: Q01DX009 (ip), vehicle: Klucel (hydroxypropylcellulose) (HPC)
[4] = dose: 400.0 mg/kg/injection, schedule: Q01DX001 (ip), vehicle: Klucel (hydroxypropylcellulose) (HPC)
[5] = dose: 100.0 mg/kg/injection, schedule: Q01DX001 (ip), vehicle: carboxymethylcellulose (CMC)
[6] = dose: 200.0 mg/kg/injection, schedule: Q01DX001 (ip), vehicle: carboxymethylcellulose (CMC)
[7] = dose: 400.0 mg/kg/injection, schedule: Q01DX001 (ip), vehicle: carboxymethylcellulose (CMC)
[8] = dose: 50.0 mg/kg/injection, schedule: Q01DX001 (ip), vehicle: carboxymethylcellulose (CMC)
[9] = dose: 50.0 mg/kg/injection, schedule: Q01DX009 (ip), vehicle: saline with Tween-80
[10] = dose: 100.0 mg/kg/injection, schedule: Q01DX009 (ip), vehicle: saline with Tween-80
[11] = dose: 100.0 mg/kg/injection, schedule: Q01DX001 (ip), vehicle: saline
[12] = dose: 400.0 mg/kg/injection, schedule: Q01DX001 (ip), vehicle: saline
[13] = dose: 100.0 mg/kg/injection, schedule: Q04DX003 (ip), vehicle: saline with Tween-80
[14] = dose: 200.0 mg/kg/injection, schedule: Q04DX003 (ip), vehicle: saline with Tween-80
[15] = dose: 400.0 mg/kg/injection, schedule: Q04DX003 (ip), vehicle: saline with Tween-80
[16] = dose: 100.0 mg/kg/injection, schedule: Q04DX002 (ip), vehicle: Klucel (hydroxypropylcellulose) (HPC)
[17] = dose: 200.0 mg/kg/injection, schedule: Q04DX002 (ip), vehicle: Klucel (hydroxypropylcellulose) (HPC)
[18] = dose: 400.0 mg/kg/injection, schedule: Q04DX002 (ip), vehicle: Klucel (hydroxypropylcellulose) (HPC)
[19] = dose: 200.0 mg/kg/injection, schedule: Q01DX009 (ip), vehicle: saline with Tween-80
[20] = dose: 100.0 mg/kg/injection, schedule: Q04DX003 (ip), vehicle: saline
[21] = dose: 200.0 mg/kg/injection, schedule: Q04DX003 (ip), vehicle: saline
[22] = dose: 400.0 mg/kg/injection, schedule: Q04DX003 (ip), vehicle: saline
[23] = dose: 100.0 mg/kg/injection, schedule: Q01DX009 (ip), vehicle: Klucel (hydroxypropylcellulose) (HPC)
[24] = dose: 100.0 mg/kg/injection, schedule: Q04DX003 (ip), vehicle: Klucel (hydroxypropylcellulose) (HPC)
[25] = dose: 200.0 mg/kg/injection, schedule: Q04DX003 (ip), vehicle: Klucel (hydroxypropylcellulose) (HPC)
[26] = dose: 400.0 mg/kg/injection, schedule: Q01DX009 (ip), vehicle: Klucel (hydroxypropylcellulose) (HPC)
[27] = dose: 400.0 mg/kg/injection, schedule: Q04DX003 (ip), vehicle: Klucel (hydroxypropylcellulose) (HPC)
[28] = dose: 50.0 mg/kg/injection, schedule: Q01DX009 (ip), vehicle: Klucel (hydroxypropylcellulose) (HPC)
[29] = dose: 400.0 mg/kg/injection, schedule: Q01DX009 (ip), vehicle: saline with Tween-80
[30] = dose: 25.0 mg/kg/injection, schedule: Q01DX009 (ip), vehicle: saline
[31] = dose: 50.0 mg/kg/injection, schedule: Q01DX009 (ip), vehicle: saline
[32] = dose: 50.0 mg/kg/injection, schedule: Q04DX003 (ip), vehicle: Klucel (hydroxypropylcellulose) (HPC)
[33] = dose: 200.0 mg/kg/injection, schedule: Q01DX001 (ip), vehicle: saline
[34] = dose: 100.0 mg/kg/injection, schedule: Q01DX009 (ip), vehicle: saline

Measured: T/C

CC(C)N=NCCO
inactive: [1] 101 % of control | [2] 103 % of control | [3] 92 % of control | [4] 99 % of control

CC1CC(=O)c2c(O)ccc(O)c21 (stereo not drawn)
inactive: [5] 96 % of control | [6] 89 % of control | [7] 100 % of control

O=C(CC(C(=O)c1ccccc1)N1CCN(Cc2ccccc2)CC1)c1ccccc1 (stereo not drawn)
inactive: [8] 92 % of control | [5] 94 % of control | [6] 92 % of control | [7] 97 % of control

O=C(Cc1cccc2ccccc12)N/N=C/c1ccccc1O
inactive: dose: 25.0 mg/kg/injection, schedule: Q01DX009 (ip), vehicle: saline with Tween-80 86 % of control | [9] 93 % of control | [10] 100 % of control and 89 % of control

O=C(OC1COC(OC(=O)c2ccccc2)C(OC(=O)c2ccccc2)C1OC(=O)c1ccccc1)c1ccccc1 (stereo not drawn)
inactive: [8] 96 % of control | [1] 102 % of control | dose: 100.0 mg/kg/injection, schedule: Q01DX001 (ip), vehicle: acetone 92 % of control | [5] 102 % of control and 103 % of control | [11] 90 % of control | [2] 102 % of control | dose: 200.0 mg/kg/injection, schedule: Q01DX001 (ip), vehicle: acetone 88 % of control | [6] 94 % of control and 91 % of control | [4] 109 % of control | dose: 400.0 mg/kg/injection, schedule: Q01DX001 (ip), vehicle: acetone 90 % of control | [7] 94 % of control | [12] 95 % of control

CCCCCCCCCCCCNC1=C(Cl)C(=O)c2ccccc2C1=O
inactive: dose: 1.0 mg/kg/injection, schedule: Q01DX Z (ip), vehicle: methylcellulose (MC) 94 % of control | dose: 2.2 mg/kg/injection, schedule: Q01DX Z (ip), vehicle: methylcellulose (MC) 89 % of control

CCOC(=O)C1C=CCCC1 (stereo not drawn)
inactive: [13] 91 % of control | [14] 102 % of control | [15] 94 % of control

Cc1cc(SCC(=O)O)sc1C
inactive: [16] 92 % of control | [17] 107 % of control | [18] 107 % of control

O=S1(=O)CC(Cl)C(I)C1 (stereo not drawn)
inactive: [10] 102 % of control | [19] 109 % of control

CCCC(O)C[N+](=O)[O-] (stereo not drawn)
inactive: [20] 103 % of control | [21] 97 % of control | [22] 101 % of control

CC(C)(C)OC(=O)NNC(=O)C(CSC(c1ccccc1)c1ccccc1)N1C(=O)c2ccccc2C1=O (stereo not drawn)
inactive: [23] 101 % of control | [24] 90 % of control | [3] 94 % of control | [25] 94 % of control | [26] 101 % of control | [27] 99 % of control

Cc1ccc(NC(=O)C(F)(F)F)cc1F
inactive: [28] 93 % of control | [23] 104 % of control | [3] 97 % of control

N#CCCCCCCCCC(=O)OCCC#N
inactive: dose: 100.0 mg/kg/injection, schedule: Q01DX001 (ip), vehicle: other 95 % of control | dose: 200.0 mg/kg/injection, schedule: Q01DX001 (ip), vehicle: other 98 % of control | dose: 400.0 mg/kg/injection, schedule: Q01DX001 (ip), vehicle: other 97 % of control

COc1cccc(NC(=S)Nc2ccccc2)c1
inactive: [16] 95 % of control | [17] 88 % of control | [18] 111 % of control

CCCCCC(=O)Nc1cccc(OC(=O)NC)c1
inactive: [10] 98 % of control | [19] 97 % of control | [29] 89 % of control

CN=C(c1ccc(NC(=O)c2ccc(C(=O)Nc3ccc(C(=NC)N4CCCC4)cc3)cc2)cc1)N1CCCC1
inactive: dose: 0.5 mg/kg/injection, schedule: Q01DX Z (ip), vehicle: water 96 % of control | dose: 1.0 mg/kg/injection, schedule: Q01DX Z (ip), vehicle: water 96 % of control

CCN(CC)CC(=O)NCC(CCN1CCCCC1)(CCN1CCCCC1)c1cccc2ccccc12
inactive: [30] 96 % of control | [31] 104 % of control | [20] 110 % of control

Cc1nonc1NC(=O)OCc1ccccc1
inactive: [16] 97 % of control | [17] 93 % of control | [18] 104 % of control

C1=C\CCC2(OCCO2)C2(CC/1)OCCO2
inactive: [32] 100 % of control | [1] 111 % of control | [23] 104 % of control | [24] 100 % of control | [2] 109 % of control | [3] 98 % of control | [25] 97 % of control | [4] 105 % of control | [26] 98 % of control | [27] 95 % of control

Cc1ccc(NC(=O)CC#N)c(C)c1
inactive: [9] 95 % of control | [10] 113 % of control | dose: 100.0 mg/kg/injection, schedule: Q04DX002 (ip), vehicle: saline with Tween-80 101 % of control | [19] 113 % of control | dose: 200.0 mg/kg/injection, schedule: Q04DX002 (ip), vehicle: saline with Tween-80 101 % of control

COc1ccc(N=C=Nc2ccc(OC)cc2)cc1
inactive: dose: 12.0 mg/kg/injection, schedule: Q01DX009 (ip), vehicle: Klucel (hydroxypropylcellulose) (HPC) 101 % of control | dose: 25.0 mg/kg/injection, schedule: Q01DX009 (ip), vehicle: Klucel (hydroxypropylcellulose) (HPC) 108 % of control | dose: 25.0 mg/kg/injection, schedule: Q04DX003 (ip), vehicle: Klucel (hydroxypropylcellulose) (HPC) 96 % of control | [28] 90 % of control | [32] 93 % of control | [24] 98 % of control

CC(C)(C)CC(C)(C)c1ccc(OCCOc2ccc(C(=O)O)cc2N)cc1
inactive: [11] 92 % of control | [33] 96 % of control

CSCOC1C(COC(c2ccccc2)(c2ccccc2)c2ccccc2)OC(OCc2ccccc2)C(NC(C)=O)C1OCc1ccccc1 (stereo not drawn)
inactive: dose: 25.0 mg/kg/injection, schedule: Q01DX001 (ip), vehicle: saline with Tween-80 95 % of control | dose: 50.0 mg/kg/injection, schedule: Q01DX001 (ip), vehicle: saline with Tween-80 91 % of control | dose: 100.0 mg/kg/injection, schedule: Q01DX001 (ip), vehicle: saline with Tween-80 101 % of control and 91 % of control | dose: 400.0 mg/kg/injection, schedule: Q01DX001 (ip), vehicle: saline with Tween-80 94 % of control

COC(=O)c1cc2ccncc2c2sc3ccccc3c12
inactive: [34] 97 % of control | [20] 90 % of control | dose: 200.0 mg/kg/injection, schedule: Q01DX009 (ip), vehicle: saline 93 % of control | [21] 92 % of control | dose: 400.0 mg/kg/injection, schedule: Q01DX009 (ip), vehicle: saline 95 % of control | [22] 90 % of control

CC(C)=CCC/C(C)=C/CNc1ncnc2nc[nH]c12
inactive: [9] 103 % of control | [10] 100 % of control | dose: 100.0 mg/kg/injection, schedule: Q04DX003 (ip), vehicle: acetone 94 % of control | [13] 94 % of control | [19] 100 % of control | dose: 200.0 mg/kg/injection, schedule: Q04DX003 (ip), vehicle: acetone 101 % of control | [14] 95 % of control | [29] 105 % of control | [15] 90 % of control

Clc1cnc[nH]1
inactive: [30] 105 % of control | [31] 108 % of control | [11] 102 % of control | [34] 105 % of control | [33] 110 % of control | [12] 102 % of control
